Test results reported in ChEMBL document CHEMBL1201862, “PubChem BioAssay data set” (2004).
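A five-concentration, 48-hour dose response in 96-well plates underlies each endpoint, interpolated linearly between surrounding concentrations. GI50 is the concentration that inhibits growth by half.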 The source made the active and inactive calls. Rule as the data show it: active = GI50 up to about 1.1 µM and inactive = higher.

Legend:
Test in all cases: NCI-60 cell line screen, 48 h
HCC 2998 = test system: HCC 2998
MDA-MB-435 = test system: MDA-MB-435
SF-539 = test system: SF-539
CAKI-1 = test system: CAKI-1
KM12 = test system: KM12
HCT-15 = test system: HCT-15
NCI-H226 = test system: NCI-H226
NCI-H522 = test system: NCI-H522
SK-MEL-5 = test system: SK-MEL-5
SW-620 = test system: SW-620
ACHN = test system: ACHN
RPMI-8226 = test system: RPMI-8226
NCI-H23 = test system: NCI-H23
MCF7 = test system: MCF7
UACC-257 = test system: UACC-257
NCI/ADR-RES = test system: NCI/ADR-RES
SF-268 = test system: SF-268
SF-295 = test system: SF-295
DU-145 = test system: DU-145
IGROV-1 = test system: IGROV-1

| Structure (SMILES) | GI50 (HCC 2998) | GI50 (MDA-MB-435) | GI50 (SF-539) | GI50 (CAKI-1) | GI50 (KM12) | GI50 (HCT-15) [µM] | GI50 (NCI-H226) | GI50 (NCI-H522) | GI50 (SK-MEL-5) | GI50 (SW-620) | GI50 (ACHN) | GI50 (RPMI-8226) | GI50 (NCI-H23) | GI50 (MCF7) | GI50 (UACC-257) | GI50 (NCI/ADR-RES) | GI50 (SF-268) | GI50 (SF-295) | GI50 (DU-145) | GI50 (IGROV-1) |
| --- | --- | --- | --- | --- | --- | --- | --- | --- | --- | --- | --- | --- | --- | --- | --- | --- | --- | --- | --- | --- |
| CCCCCC/C=C\CCCCCCCCCc1cccc(O)c1C(=O)O [GINKGOLIC ACID 17:1] | > 100 µM (inactive) | > 100 µM (inactive) | > 100 µM (inactive) | > 100 µM (inactive) | > 100 µM (inactive) | 32.6 | 60.7 µM (inactive) | > 100 µM (inactive) | 35.5 µM (inactive) | > 100 µM (inactive) | > 100 µM (inactive) | 84.3 µM (inactive) | > 100 µM (inactive) | > 100 µM (inactive) | > 100 µM (inactive) | > 100 µM (inactive) | > 100 µM (inactive) | 59.3 µM (inactive) | > 100 µM (inactive) | > 100 µM (inactive) |
| CCc1nc(N)nc(N)c1-c1ccc(Cl)cc1 [PYRIMETHAMINE] | 6.25 µM (inactive) | 8.36 µM (inactive) | 20.7 µM (inactive) | 71.9 µM (inactive) | 11.6 µM (inactive) | 3.94 | 42.6 µM (inactive) | 22.5 µM (inactive) | 2.48 µM (inactive) | 5.61 µM (inactive) | 5.11 µM (inactive) | 34.6 µM (inactive) | 5.79 µM (inactive) | 11.1 µM (inactive) | 12.5 µM (inactive) | 30.9 µM (inactive) | 9.77 µM (inactive) | 4.44 µM (inactive) | 18.7 µM (inactive) | 9.86 µM (inactive) |
| Cc1ccc(C(=O)Nc2ccc(S(=O)(=O)O)c3cc(S(=O)(=O)O)cc(S(=O)(=O)O)c23)cc1NC(=O)c1cccc(NC(=O)Nc2cccc(C(=O)Nc3cc(C(=O)Nc4ccc(S(=O)(=O)O)c5cc(S(=O)(=O)O)cc(S(=O)(=O)O)c45)ccc3C)c2)c1 [SURAMIN] | > 100 µM (inactive) | > 100 µM (inactive) | > 100 µM (inactive) | 73.5 µM (inactive) | > 67.5 µM (inactive) | 90.8 | > 63.8 µM (inactive) | 88.5 µM (inactive) | > 84.7 µM (inactive) | 89.3 µM (inactive) | 97.9 µM (inactive) | > 100 µM (inactive) | 68.9 µM (inactive) | > 100 µM (inactive) | > 100 µM (inactive) | > 100 µM (inactive) | 66.2 µM (inactive) | 69 µM (inactive) | > 100 µM (inactive) | 69.3 µM (inactive) |
| S=P(N1CC1)(N1CC1)N1CC1 [THIOTEPA] | 111 µM (inactive) | 158 µM (inactive) | 37.7 µM (inactive) | 30.3 µM (inactive) | 171 µM (inactive) | 149 | 110 µM (inactive) | 101 µM (inactive) | 97.9 µM (inactive) | 140 µM (inactive) | 14.6 µM (inactive) | 176 µM (inactive) | 36.1 µM (inactive) | 30.7 µM (inactive) | 134 µM (inactive) | 79.1 µM (inactive) | 39.4 µM (inactive) | 33.1 µM (inactive) | 32.1 µM (inactive) | 158 µM (inactive) |
